Eight substances from patent US20210171604A1, “PEPTIDES FOR THE TREATMENT OF TYPE 2 DIABETES” (YISSUM RESEARCH DEVELOPMENT COMPANY OF THE HEBREW …, priority 2017, published 2021) can be followed below.

The test system of one assay is male C57BL mice. Nature of the assay: Inhibition of starvation-induced insulin resistance (blood glucose after 8 h starvation). Particulars: for inhibition of insulin-resistance developed in the course of starvation: i.p. ~35 mg/kg, 8 h starvation, compared to vehicle; for % blood glucose decrease following 8 h starvation / Mean blood glucose after 8 h starvation (% of time 0): i.p. 1 mg/mouse (~35 mg/kg); for % blood glucose decrease following 8 h starvation: compared with time 0; for Mean blood glucose after 8 h starvation (% of time 0): level after 8 h starvation compared to t0 (=100%), vehicle 90.3; for inhibition of starvation-induced insulin-resistance (words, FIG. 1): Example 5, 20 mg/kg i.p., relative change in blood glucose compared to time 0 (=100%). The class given is in vivo. As to the method:
Protocol: Blood glucose was measured in the morning (time 0). The mice were then injected intraperitoneally with a peptide (1 mg/mouse=˜35 mg/kg) or with a vehicle and placed in a cage with water but no food. After 8 hrs starvation, blood glucose was measured again and the mice were supplied with food. […]
The ability of the peptides ACD-403.3, ACD-047.7 and ACD-040.2 described in Example 1 above, to inhibit insulin-resistance induced by starvation was tested in mice (male C57BL mice ˜9-10 wks old).
Peptides' solutions for injection were prepared as follows: 5 mg peptide were dissolved in 1 ml of a solution composed of 5% hydroxypropyl-beta-cyclodextrin (HPβCD)+2% Propylene glycol (PG)+2% Tween-80 in DDW (Wt/Vol). If needed, the solution was warmed up to 80° C. to facilitate peptide solubilization. 0.2 ml of this solution, or from a vehicle (no peptide), were injected i.p. into the mice.
The results, summarized in Table 4 below, are expressed as % change in blood glucose level after 8 h starvation, compared to t0 (=100%), as well as % decrease in blood glucose after 8 hrs starvation, compared with blood glucose at time 0. A higher decrease in glucose levels in the blood indicates better intake of glucose by cells, which reflects better inhibition of the starvation-induced insulin resistance. […]

The test system of assay [1] is obese diabetic mice (db/db). The assay can be described thus: Blood glucose response of obese diabetic (db/db) mice to peptide treatment. The class given is in vivo. Particulars: for Blood glucose: mean, n=3; for % change from time point (−4) in blood glucose: compared to first baseline (241 mg/dL). The procedure:
ACD-004 was tested for its effect on hyperglycemia in obese diabetic mice (db/db).
Protocol: Mice (n=3) were kept on normal, unlimited diet. Prior to peptide treatment, baseline measurements of blood glucose and body weight were taken every ˜3 weeks through a period of 2.5 months (see time points (−1)-(−4) in Table 3 below). Injections of the peptide (intraperitoneally, ˜35 mg/kg) started on time point 0 and continued on time points 1 and 2, twice a day. Blood glucose and body weight were measured at the indicated days.
The results, summarized in Table 3, are expressed as mean % change in blood glucose compared to the first baseline measurement (time point (−4)).
Mice (n=16) were kept on normal, unlimited diet. Injections of the peptide (i.p., 20 mg/kg, n=9) or vehicle (i.p., n=7) started at 3-4 m of age (time point ‘0’) and continued for 3 days, once a day. In a similar experiment the peptide […] were injected to mice with severe diabetes for 7 days.

[2] abbreviates: HPβCD/PG/Tween-80 vehicle, vehicle 9.7%.
[3] abbreviates: DMSO/Brij-97 vehicle, vehicle 14%.

Marks after values point to notes of the source that are not given here. [ ]: non-standard residue; d: D form. The star is where a group is joined. Stearoyl = CCCCCCCCCCCCCCCCCC(=O)*; Myristoyl = CCCCCCCCCCCCCC(=O)*; Nle = CCCC[C@H](N)C(=O)O; Nva = CCC[C@H](N)C(=O)O

As to “Stear-G-R-N-H-Q-K-G-Q-V-T-R-NH2 (Stearoyl-GRNHQKGQVTR-NH2; SMILES CCCCCCCCCCCCCCCCCC(=O)NCC(=O)N[C@@H](CCCNC(=N)N)C(=O)N[C@@H](CC(N)=O)C(=O)N[C@@H](Cc1c[nH]cn1)C(=O)N[C@@H](CCC(N)=O)C(=O)N[C@@H](CCCCN)C(=O)NCC(=O)N[C@@H](CCC(N)=O)C(=O)N[C@H](C(=O)N[C@H](C(=O)N[C@@H](CCCNC(=N)N)C(N)=O)[C@@H](C)O)C(C)C) [ACD-403.3, stearoylated, amidated peptide derived from h-HO-1]”, the “inhibition of insulin-resistance developed in the course of starvation” value (from here on “inhibition … in the course of starvation”) in the assay with male C57BL mice (Example 4) was “effectively inhibited insulin-resistance”. Also, in the assay with male C57BL mice (setting [2]), the “% blood glucose decrease following 8 h starvation” value was 36.7%. The “Mean blood glucose after 8 h starvation (% of time 0)” value (shortened to “Mean blood glucose … (% of time 0)”) in the assay on male C57BL mice (HPβCD/PG/Tween-80 vehicle) is listed as 63.3** %.
For “Myr-G-R-N-L-Q-K-G-Q-V-T-R-NH2 (Myristoyl-GRNLQKGQVTR-NH2; SMILES CCCCCCCCCCCCCC(=O)NCC(=O)N[C@@H](CCCNC(=N)N)C(=O)N[C@@H](CC(N)=O)C(=O)N[C@@H](CC(C)C)C(=O)N[C@@H](CCC(N)=O)C(=O)N[C@@H](CCCCN)C(=O)NCC(=O)N[C@@H](CCC(N)=O)C(=O)N[C@H](C(=O)N[C@H](C(=O)N[C@@H](CCCNC(=N)N)C(N)=O)[C@@H](C)O)C(C)C) [ACD-047.7, myristoylated, amidated peptide derived from h-HO-1]”, the “inhibition … in the course of starvation” value in the assay with male C57BL mice (Example 4) was “effectively inhibited insulin-resistance”. Moreover, the “inhibition of starvation-induced insulin-resistance (words, FIG. 1)” value (from here on “inhibition … (words, FIG. 1)”) in the assay with male C57BL mice was “inhibited significantly”. The “% blood glucose decrease following 8 h starvation” value in the assay with male C57BL mice (setting [2]) is recorded as 39.2%. Also, the “Mean blood glucose … (% of time 0)” value in the assay with male C57BL mice (HPβCD/PG/Tween-80 vehicle) is 60.8** %.
With “Myr-G-F-T-K-G-Q-V-T-NH2 (Myristoyl-GFTKGQVT-NH2; SMILES CCCCCCCCCCCCCC(=O)NCC(=O)N[C@@H](Cc1ccccc1)C(=O)N[C@H](C(=O)N[C@@H](CCCCN)C(=O)NCC(=O)N[C@@H](CCC(N)=O)C(=O)N[C@H](C(=O)N[C@H](C(N)=O)[C@@H](C)O)C(C)C)[C@@H](C)O) [ACD-005, myristoylated, amidated peptide derived from h-HIF1α]”, the “inhibition … in the course of starvation” value with male C57BL mice (Example 2) is “effectively inhibited insulin-resistance”. Besides, in the assay with male C57BL mice (setting [3]), the “% blood glucose decrease following 8 h starvation” value is recorded as 49%.
Take “Myr-G-R-N-I-Q-K-G-Q-V-T-R-NH2 (Myristoyl-GRNIQKGQVTR-NH2; SMILES CCCCCCCCCCCCCC(=O)NCC(=O)N[C@@H](CCCNC(=N)N)C(=O)N[C@@H](CC(N)=O)C(=O)N[C@H](C(=O)N[C@@H](CCC(N)=O)C(=O)N[C@@H](CCCCN)C(=O)NCC(=O)N[C@@H](CCC(N)=O)C(=O)N[C@H](C(=O)N[C@H](C(=O)N[C@@H](CCCNC(=N)N)C(N)=O)[C@@H](C)O)C(C)C)[C@@H](C)CC) [ACD-047.8]”: in the assay on male C57BL mice, the “inhibition … (words, FIG. 1)” value was “inactive”.
For “Myr-G-R-N-NorVal-Q-K-G-Q-V-T-R-NH2 (Myristoyl-GRN[Nva]QKGQVTR-NH2; SMILES CCCCCCCCCCCCCC(=O)NCC(=O)N[C@@H](CCCNC(=N)N)C(=O)N[C@@H](CC(N)=O)C(=O)N[C@@H](CCC)C(=O)N[C@@H](CCC(N)=O)C(=O)N[C@@H](CCCCN)C(=O)NCC(=O)N[C@@H](CCC(N)=O)C(=O)N[C@H](C(=O)N[C@H](C(=O)N[C@@H](CCCNC(=N)N)C(N)=O)[C@@H](C)O)C(C)C) [ACD-040.2, myristoylated, amidated peptide derived from h-HO-1]”, the “inhibition … in the course of starvation” value with male C57BL mice (Example 4) is given as “effectively inhibited insulin-resistance”. Further, the “% blood glucose decrease following 8 h starvation” value with male C57BL mice (setting [2]) is 36.6%. The “Mean blood glucose … (% of time 0)” value with male C57BL mice (HPβCD/PG/Tween-80 vehicle) is listed as 63.4** %.
For the substance “Myr-G-R-N-Nle-Q-K-G-Q-V-T-R-NH2 (Myristoyl-GRN[Nle]QKGQVTR-NH2; SMILES CCCCCCCCCCCCCC(=O)NCC(=O)N[C@@H](CCCNC(=N)N)C(=O)N[C@@H](CC(N)=O)C(=O)N[C@@H](CCCC)C(=O)N[C@@H](CCC(N)=O)C(=O)N[C@@H](CCCCN)C(=O)NCC(=O)N[C@@H](CCC(N)=O)C(=O)N[C@H](C(=O)N[C@H](C(=O)N[C@@H](CCCNC(=N)N)C(N)=O)[C@@H](C)O)C(C)C) [ACD-047.9]”, the “inhibition … (words, FIG. 1)” value in the assay with male C57BL mice was “inactive”.
Take “Stear-G-R-N-F-Q-K-G-Q-V-T-R-NH2 (Stearoyl-GRNFQKGQVTR-NH2; SMILES CCCCCCCCCCCCCCCCCC(=O)NCC(=O)N[C@@H](CCCNC(=N)N)C(=O)N[C@@H](CC(N)=O)C(=O)N[C@@H](Cc1ccccc1)C(=O)N[C@@H](CCC(N)=O)C(=O)N[C@@H](CCCCN)C(=O)NCC(=O)N[C@@H](CCC(N)=O)C(=O)N[C@H](C(=O)N[C@H](C(=O)N[C@@H](CCCNC(=N)N)C(N)=O)[C@@H](C)O)C(C)C) [ACD-400.3, identical to ACD-004 except N-terminal acyl group is stearoyl instead of myristoyl]”: in assay [1] ((db/db) mice with severe diabetes, injected for 7 days, vs vehicle), the “blood glucose following 7-day treatment (words, FIG. 3)” value is reported as “outstanding decrease in blood glucose”. Also, in assay [1] (i.p. 20 mg/kg once a day for 3 days, n=9 vs vehicle n=7), the “blood glucose following 3-day treatment (words, FIG. 2)” value is “outstanding decrease in blood glucose”.
With “Myr-G-R-N-F-Q-K-G-Q-V-T-R-NH2 (Myristoyl-GRNFQKGQVTR-NH2; SMILES CCCCCCCCCCCCCC(=O)NCC(=O)N[C@@H](CCCNC(=N)N)C(=O)N[C@@H](CC(N)=O)C(=O)N[C@@H](Cc1ccccc1)C(=O)N[C@@H](CCC(N)=O)C(=O)N[C@@H](CCCCN)C(=O)NCC(=O)N[C@@H](CCC(N)=O)C(=O)N[C@H](C(=O)N[C@H](C(=O)N[C@@H](CCCNC(=N)N)C(N)=O)[C@@H](C)O)C(C)C) [ACD-004, myristoylated, C-terminally amidated peptide derived from h-HO-1]”, the “Blood glucose” value was 105 mg/dL in assay [1] (ACD-004 i.p. ~35 mg/kg twice a day at time points 0-2, time point 3, age 18.3 wks); 177 mg/dL in assay [1] (ACD-004 i.p. ~35 mg/kg twice a day from time point 0, time point 1, age 17.9 wks); 139 mg/dL in assay [1] (ACD-004 i.p. ~35 mg/kg twice a day from time point 0, time point 2, age 18.1 wks). The “effect on blood glucose levels in diabetic mice” value in assay [1] (Example 3, i.p. ~35 mg/kg twice a day) is reported as “effectively reduced blood glucose levels”. Moreover, the “% change from time point (−4) in blood glucose” value in assay [1] (time point 1) is reported as −27%; in assay [1] (time point 2), −42%; in assay [1] (time point 3), −56%. Moreover, the “inhibition … in the course of starvation” value with male C57BL mice (Example 2) is “effectively inhibited insulin-resistance”. In the assay on male C57BL mice (setting [3]), the “% blood glucose decrease following 8 h starvation” value is on record as 47%.
